Here are results for three compounds from ChEMBL document CHEMBL1149747, “Diterpene metabolites from two chemotypes of the marine sponge Myrmekioderma styx” (J Nat Prod, 1992).

A word on the IC50: it is the concentration that gives 50% inhibition.

The structures appear in SMILES notation. ≈ marks a conversion by molar mass, not a printed value.

The test system of assay [1] is P388. Briefly: Cytotoxicity against mouse P388 cells. The format is functional, cell-based.
The test system of assay [2] is A549. As to the kind of experiment: Cytotoxicity against human A549 cells. The format is functional, cell-based.

As to `CC1=CC[C@@]2(C)CC[C@@]3(C)[C@H](O)C=C(C(C)C)[C@H]3C2CC1` (stereo partly specified), the values for the IC50 in assay [1] and in assay [2] were 11.2 µg/mL (≈ 38.8 µM) and 4 µg/mL (≈ 13.9 µM), respectively.

Consider `CC(=O)O[C@@H]1C[C@]2(C)C[C@@H]3O[C@]3(C)CCC2[C@@H]2C(C(C)C)=CC[C@]12C` (stereo partly specified), for which the IC50 in assay [1] turned out to be 5.6 µg/mL (≈ 16.2 µM); in assay [2] it was 7 µg/mL (≈ 20.2 µM).

In the case of `C=CC(C)(O)/C=C/C=C(\C)CC/C=C(\C)CC(=O)C=C(C)C` (stereo unspecified) [STYXENOL A], the IC50 in assay [1] worked out at 5 µg/mL (≈ 16.5 µM); in assay [2], 6.1 µg/mL (≈ 20.2 µM).
